Results from patent US4751295A, “Cephalosporin derivatives” (Bristol-Myers Company, priority 1986, dated 1988).
Converted amounts (≈) assume the structure as drawn. Read-outs that look alike come from different tables or passages of the source.

Experiments:
[1] = test system: Cephalothinresistant E. coli (3 strains) and Kl. pneumoniae (2 strains); assay: MIC, two-fold serial agar dilution, group (G-)-Ib; format: cell-based; conditions: 5 strains; for MIC: Escherichia coli, read-out: Geometric Mean of MIC, (G-)-Ib, Mueller-Hinton agar; for Geometric Mean of MIC, (G-)-Ib: Mueller-Hinton agar
Procedure: (§1) In the primary evaluation of the compounds of this invention, the Minimum Inhibitory Concentrations (MIC's) of the compounds were determined by the two-fold serial agar dilution method in Mueller-Hinton agar against 32 strains of test organisms in six groups.
(G-)Ib: Cephalothinresistant E. coli (3 strains) and Kl. pneumoniae (2

[2] = test system: M. morganii (1 strain), Ent. cloacae (2 strains) and Ser. marcescens (2 strains); assay: MIC, two-fold serial agar dilution, group (G-)-II; format: cell-based; conditions: Mueller-Hinton agar, 5 strains; for MIC: read-out: Geometric Mean of MIC, (G-)-II
Procedure: as §1
(G-)II: M. morganii (1 strain), Ent. cloacae (2 strains) and Ser.

[3] = test system: Penicillinresistant S. aureus (5 strains); assay: MIC, two-fold serial agar dilution, group (G+)-Ib; format: cell-based; conditions: Mueller-Hinton agar, 5 strains; for MIC: Staphylococcus aureus, read-out: Geometric Mean of MIC, (G+)-Ib
Procedure: as §1
(G+)Ib: Penicillinresistant S. aureus (5 strains)

[4] = test system: Penicillinsensitive S. aureus (5 strains); assay: MIC, two-fold serial agar dilution, group (G+)-Ia; format: cell-based; conditions: for MIC: Staphylococcus aureus, read-out: Geometric Mean of MIC, (G+)-Ia
Procedure: as §1
(G+)Ia: Penicillinsensitive S. aureus (5 strains)

[5] = test system: Cephalothinsensitive E. coli (2 strains), Kl. pneumoniae (1 strain) and Pr. mirabilis (2 strains); assay: MIC, two-fold serial agar dilution, group (G-)-Ia; format: cell-based; conditions: Mueller-Hinton agar, 5 strains; for MIC: read-out: Geometric Mean of MIC, (G-)-Ia
Procedure: as §1
(G+)Ia: Cephalothinsensitive E. coli (2 strains), Kl. pneumoniae (1
strain) and Pr. mirabilis (2 strains)

[6] = test system: Ps. aeruginosa (7 strains); assay: MIC, two-fold serial agar dilution, group (G-)-III; format: cell-based; conditions: Mueller-Hinton agar; for MIC: Pseudomonas aeruginosa, read-out: Geometric Mean of MIC, (G-)-III
Procedure: as §1
(G-)III: Ps. aeruginosa (7 strains)

[7] = blood levels upon intramuscular administration to mice; format: in vivo; conditions: mouse, im, 20 mg/kg
Procedure: Table 2, below, gives the Protective Dose50 (PD50) in mice for a number of the compounds of Formula I against selected microorganisms. Table 3 gives blood levels of various compounds of Formula I upon intramuscular administration of the test compounds to mice at a dosage of 20 mg/kg.

Row | Compound | MIC [1] [µg/mL] | MIC [2] [µg/mL] | MIC [3] [µg/mL] | MIC [4] [µg/mL] | MIC [5] [µg/mL] | MIC [6] [µg/mL] | Geometric Mean of MIC, (G-)-Ib [1] [µg/mL] | Geometric Mean of MIC, (G-)-II [2] [µg/mL] | Geometric Mean of MIC, (G+)-Ib [3] [µg/mL] | Geometric Mean of MIC, (G+)-Ia ([4]; Mueller-Hinton agar, 5 strains) [µg/mL] | Geometric Mean of MIC, (G-)-Ia [5] [µg/mL] | Geometric Mean of MIC, (G-)-III [6] [µg/mL] | MIC ([4]; Mueller-Hinton agar, 5 strains) [µg/mL] | AUC [7] [ng·h/mL] | Cmax [7] [ng/mL] | half-life [7] [min]
1 | CON=C(C(=O)NC1C(=O)N2C(C(=O)[O-])=C(/C=C/C[n+]3ccccc3)CSC12)c1nsc(N)n1 (stereo not drawn) [I-1B E, 7-[2-(5-Amino-1,2,4-thiadiazol-3-yl)-2-methoxyiminoacetamido]-3-[3-pyridinio-1-propen-1-yl]-3-cephem-4-carboxylate] | 0.044 (≈ 0.0877 µM) | 0.11 (≈ 0.219 µM) | 0.4 (≈ 0.798 µM) | 0.2 (≈ 0.399 µM) | 0.016 (≈ 0.0319 µM) | 1.6 (≈ 3.19 µM) | – | – | – | – | – | – | – | – | – | –
2 | CON=C(C(=O)NC1C(=O)N2C(C(=O)[O-])=C(C=CC[N+](C)(C)C)CS[C@H]12)c1nsc(N)n1 (stereo partly drawn) [I-1D E/Z = 10/1, 7-[2-(5-Amino-1,2,4-thiadiazol-3-yl)-2-methoxyiminoacetamido]-3-[3-trimethylammonio-1-propenyl]-3-cephem-4-carboxylate] | – | – | – | – | – | – | 0.076 | 0.26 | 0.53 | 0.30 | 0.05 | 1.3 | – | – | – | –
3 | CON=C(C(=O)NC1C(=O)N2C(C(=O)[O-])=C(C=CC[N+]3(C)CCCC3)CSC12)c1nsc(N)n1 (stereo not drawn) [I-1A E/Z = 1/1, 7-[2-(5-Amino-1,2,4-thiadiazol-3-yl)-2-methoxyiminoacetamido]-3-[3-(1-methylpyrrolidinio)-1-propen-1-yl]-3-cephem-4-carboxylate] | – | 0.23 (≈ 0.453 µM) | 0.7 (≈ 1.38 µM) | – | 0.05 (≈ 0.0985 µM) | 2.4 (≈ 4.73 µM) | 0.15 | – | – | – | – | – | 0.26 (≈ 0.512 µM) | – | – | –
4 | CCO/N=C(\C(=O)NC1C(=O)N2C(C(=O)[O-])=C(/C=C/C[n+]3ccc(C(=O)O)cc3)CSC12)c1nsc(N)n1 (stereo not drawn) [I-2N E, 7-[2-(5-Amino-1,2,4-thiadiazol-3-yl)-2-(Z)-ethoxyiminoacetamido]-3-[3-(4-carboxypyridinio)-1-propenyl]-3-cephem-4-carboxylate] | 0.11 (≈ 0.197 µM) | 0.35 (≈ 0.625 µM) | 2.1 (≈ 3.75 µM) | – | 0.016 (≈ 0.0286 µM) | 4.7 (≈ 8.4 µM) | – | – | – | – | – | – | 1.2 (≈ 2.14 µM) | – | – | –
5 | CON=C(C(=O)NC1C(=O)N2C(C(=O)[O-])=C(C=CC[N+](C)(C)C)CS[C@H]12)c1nsc(N)n1 (stereo partly drawn) [I-1D E/Z = 1/1, 7-[2-(5-Amino-1,2,4-thiadiazol-3-yl)-2-methoxyiminoacetamido]-3-(3-trimethylammonio-1-propen-1-yl)-3-cephem-4-carboxylate] | – | 0.46 (≈ 0.955 µM) | – | – | 0.1 (≈ 0.208 µM) | 2.4 (≈ 4.98 µM) | 0.26 | – | 1.4 | 0.61 | – | – | – | – | – | –
6 | CON=C(C(=O)NC1C(=O)N2C(C(=O)[O-])=C(/C=C/C[n+]3cccc(CC(=O)O)c3)CSC12)c1nsc(N)n1 (stereo not drawn) [Compound I-1P, 7-[2-(5-Amino-1,2,4-thiadiazol-3-yl)-2-methoxyiminoacetamido]-3-[3-(3-carboxymethylpyridinio)-1-propenyl]-3-cephem-4-carboxylate] | 0.087 (≈ 0.155 µM) | 0.34 (≈ 0.608 µM) | 1.6 (≈ 2.86 µM) | – | 0.013 (≈ 0.0232 µM) | 14 (≈ 25 µM) | – | – | – | – | – | – | 0.8 (≈ 1.43 µM) | – | – | –
7 | CCON=C(C(=O)NC1C(=O)N2C(C(=O)[O-])=C(/C=C/C[n+]3ccc(C(N)=O)cc3)CSC12)c1nsc(N)n1 (stereo not drawn) [Compound I-2H, 7-[2-(5-Amino-1,2,4-thiadiazol-3-yl)-2-ethoxyiminoacetamido]-3-[3-(4-carbamoylpyridinio)-1-propen-1-yl]-3-cephem-4-carboxylate] | 0.057 (≈ 0.102 µM) | 0.15 (≈ 0.269 µM) | 0.4 (≈ 0.716 µM) | 0.2 (≈ 0.358 µM) | 0.014 (≈ 0.0251 µM) | 1.4 (≈ 2.51 µM) | – | – | – | – | – | – | – | – | – | –
8 | CCO/N=C(\C(=O)NC1C(=O)N2C(C(=O)[O-])=C(/C=C\C[n+]3ccc(C(=O)O)cc3)CSC12)c1nsc(N)n1 (stereo not drawn) [I-2N Z, 7-[2-(5-Amino-1,2,4-thiadiazol-3-yl)-2-(Z)-ethoxyiminoacetamido]-3-[3-(4-carboxypyridinio)-1-propenyl]-3-cephem-4-carboxylate] | 0.15 (≈ 0.268 µM) | 0.69 (≈ 1.23 µM) | 3.1 (≈ 5.54 µM) | – | 0.044 (≈ 0.0786 µM) | 10 (≈ 17.9 µM) | – | – | – | – | – | – | 1.4 (≈ 2.5 µM) | – | – | –
9 | CON=C(C(=O)NC1C(=O)N2C(C(=O)[O-])=C(C=CC[N+](C)(C)C)CS[C@H]12)c1nsc(N)n1 (stereo partly drawn) [Compound I-1D, 7-[2-(5-Amino-1,2,4-thiadiazol-3-yl)-2-methoxyiminoacetamido]-3-(3-trimethylammonio-1-propen-1-yl)-3-cephem-4-carboxylate] | – | – | – | – | – | – | – | – | – | – | – | – | – | 11000 | 20000 | 19
